Consider 33 molecules from patent US10202339B2, “Therapeutic compounds and compositions” (AGIOS PHARMACEUTICALS, INC., priority 2012, dated 2019).

Each structure is given as a SMILES string.

In the test the target is IDH2 R140Q (Homo sapiens (Human), UniProt P48735, R140Q). The experiment in a line: IDH2 R140Q enzymatic cofactor depletion assay (diaphorase/resazurin). In kind it is biochemical. Particulars: IDH2 R140Q enzyme, one hour preincubation with compound, one hour reaction; read-out: Enz R140Q. The essentials: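 Enzyme preincubated with compound 1 h at room temperature, then reaction started with 50 μM NADPH and 6.3 mM α-KG and run 1 h at room temperature. Remaining NADPH measured by diaphorase (36 μg/ml)/resazurin (60 μM) stop mix, fluorescence read at Ex544/Em590 after 1 min.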
Chain of IDH2 R140Q (P48735 40-452 R140Q): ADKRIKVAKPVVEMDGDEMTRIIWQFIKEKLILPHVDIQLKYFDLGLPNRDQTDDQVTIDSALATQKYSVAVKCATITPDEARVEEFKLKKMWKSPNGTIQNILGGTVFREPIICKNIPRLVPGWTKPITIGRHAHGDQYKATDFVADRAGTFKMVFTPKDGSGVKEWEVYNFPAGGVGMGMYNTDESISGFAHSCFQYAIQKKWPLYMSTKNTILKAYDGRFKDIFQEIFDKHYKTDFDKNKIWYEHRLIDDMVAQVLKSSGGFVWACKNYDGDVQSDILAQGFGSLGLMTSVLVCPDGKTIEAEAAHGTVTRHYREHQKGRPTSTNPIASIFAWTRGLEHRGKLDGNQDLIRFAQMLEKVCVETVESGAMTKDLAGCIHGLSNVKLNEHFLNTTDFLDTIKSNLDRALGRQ
(In general: Alamar Blue is a resazurin reagent that responds to reducing activity.)
As to `O=C(Nc1cccc(C(F)(F)F)c1)Nc1cc(S(=O)(=O)NCC(F)(F)F)ccc1C1CCCCO1` (stereo not drawn) [Compound 165, 4-(tetrahydro-2H-pyran-2-yl)-N-(2,2,2-trifluoroethyl)-3-(3-(3-(trifluoromethyl)phenyl)ureido)benzene sulfonamide], the IC50 lay in the range of 0.1 to 1 µM. Consider `O=C(Nc1ccc(F)c(Cl)c1)Nc1cc(S(=O)(=O)NCC(F)(F)F)ccc1C1CCCCO1` (stereo not drawn) [Compound 166, 3-(3-(3-chloro-4-fluorophenyl)ureido)-4-(tetrahydro-2H-pyran-2-yl)-N-(2,2,2-trifluoroethyl)benzene sulfonamide], for which the IC50 was in the range of 0.1 to 1 µM.

`O=C(Nc1ccc(F)c(C(F)(F)F)c1)Nc1cc(S(=O)(=O)NCC(F)(F)F)ccc1C1CCCCO1` (stereo not drawn) [Compound 167, 3-(3-(4-fluoro-3-(trifluoromethyl)phenyl)ureido)-4-(tetrahydro-2H-pyran-2-yl)-N-(2,2,2-trifluoroethyl)benzenesulfonamide]: the IC50 was in the range of 0.1 to 1 µM. Take `O=C(Nc1cccc(Cl)c1)Nc1cc(S(=O)(=O)NCC(F)(F)F)ccc1C1CCCCO1` (stereo not drawn) [Compound 168, 3-(3-(3-chlorophenyl)ureido)-4-(tetrahydro-2H-pyran-2-yl)-N-(2,2,2-trifluoroethyl)benzenesulfonamide]: the IC50 was 0.1 to 1 µM.

On to `O=C(Nc1ncc(Cl)s1)Nc1cc(S(=O)(=O)NCC(F)(F)F)ccc1C1CCCCO1` (stereo not drawn) [Compound 169, 3-(3-(5-chlorothiazol-2-yl)ureido)-4-(tetrahydro-2H-pyran-2-yl)-N-(2,2,2-trifluoroethyl)benzene sulfonamide], for which the IC50 was 0.1 to 1 µM. Consider `O=C(Nc1cccc(C(F)(F)F)c1)Nc1cc(S(=O)(=O)Nc2ccccc2)ccc1C1CCCCO1` (stereo not drawn) [Compound 170, N-phenyl-4-(tetrahydro-2H-pyran-2-yl)-3-(3-(3-(trifluoromethyl)phenyl)ureido)benzenesulfonamide], for which the IC50 lay in the range of 0.1 to 1 µM. In the case of `O=C(Nc1ncc(Cl)s1)Nc1cc(S(=O)(=O)NCC(F)(F)F)ccc1C1CCOC1` (stereo not drawn) [Compound 172, 3-(3-(5-chlorothiazol-2-yl)ureido)-4-(tetrahydrofuran-3-yl)-N-(2,2,2-trifluoroethyl)benzene sulfonamide], the IC50 was 1 to 10 µM. For `O=C(Nc1cccc(C(F)(F)F)c1)Nc1cc(S(=O)(=O)NCC(F)(F)F)ccc1C1CCCO1` (stereo not drawn) [Compound 173, 4-(tetrahydrofuran-2-yl)-N-(2,2,2-trifluoroethyl)-3-(3-(3-(trifluoromethyl)phenyl)ureido)benzene sulfonamide] the value was 0.1 to 1 µM; for `O=C(Nc1cc(C(F)(F)F)ccn1)Nc1cc(S(=O)(=O)NCC(F)(F)F)ccc1C1CCCO1` (stereo not drawn) [Compound 174, 4-(tetrahydrofuran-2-yl)-N-(2,2,2-trifluoroethyl)-3-(3-(4-(trifluoromethyl)pyridin-2-yl)ureido)benzene sulfonamide], 1 to 10 µM; for `O=C(Nc1cccc(C(F)(F)F)c1)Nc1cc(S(=O)(=O)NCC(F)(F)F)ccc1OCC1CC1` [Compound 175, 4-(cyclopropylmethoxy)-N-(2,2,2-trifluoroethyl)-3-(3-(3-(trifluoromethyl)phenyl)ureido)benzenesulfonamide], 0.1 to 1 µM. As to `O=C(Nc1cccc(C(F)(F)F)c1)Nc1cc(S(=O)(=O)NCC(F)(F)F)ccc1OCC1CCCO1` (stereo not drawn) [Compound 176, 4-((tetrahydrofuran-2-yl)methoxy)-N-(2,2,2-trifluoroethyl)-3-(3-(3-(trifluoromethyl)phenyl)ureido)benzenesulfonamide], the IC50 lay in the range of 0.1 to 1 µM. As for `CCOc1ccc(S(=O)(=O)NCC(F)(F)F)cc1NC(=O)Nc1cccc(C(F)(F)F)c1` [Compound 177, 4-ethoxy-N-(2,2,2-trifluoroethyl)-3-(3-(3-(trifluoromethyl)phenyl)ureido)benzenesulfonamide], the IC50 was under 0.1 µM. In the case of `O=C(Nc1cccc(C(F)(F)F)c1)Nc1cc(S(=O)(=O)NCC(F)(F)F)ccc1OC1CCOCC1` [Compound 178, 4-((tetrahydro-2H-pyran-4-yl)oxy)-N-(2,2,2-trifluoroethyl)-3-(3-(3-(trifluoromethyl)phenyl)ureido)benzenesulfonamide], the IC50 fell in the range of 0.1 to 1 µM. As to `N#CC1(NS(=O)(=O)c2ccc(OCC3CC3)c(NC(=O)Nc3cccc(C(F)(F)F)c3)c2)CC1` [Compound 179, N-(1-cyanocyclopropyl)-4-(cyclopropylmethoxy)-3-(3-(3-(trifluoromethyl)phenyl)ureido)benzene sulfonamide], the IC50 is 0.1 to 1 µM. The result for `CCOc1ccc(S(=O)(=O)NC2COC2)cc1NC(=O)Nc1cccc(C(F)(F)F)c1` [Compound 180, 4-ethoxy-N-(oxetan-3-yl)-3-(3-(3-(trifluoromethyl)phenyl)ureido)benzenesulfonamide] reads 0.1 to 1 µM; that for `CCOc1ccc(S(=O)(=O)NC2(C#N)CC2)cc1NC(=O)Nc1cccc(C(F)(F)F)c1` [Compound 181, N-(1-cyanocyclopropyl)-4-ethoxy-3-(3-(3-(trifluoromethyl)phenyl)ureido)benzenesulfonamide], 0.1 to 1 µM.

As to `O=C(Nc1cccc(C(F)(F)F)c1)Nc1cc(S(=O)(=O)NC2COC2)ccc1OCC1CC1` [Compound 183, 4-(cyclopropylmethoxy)-N-(oxetan-3-yl)-3-(3-(3-(trifluoromethyl)phenyl)ureido)benzenesulfonamide], the IC50 fell in the range of 0.1 to 1 µM.

Regarding `O=C(Nc1cccc(C(F)(F)F)c1)Nc1cc(S(=O)(=O)NCC(F)(F)F)ccc1OCC1CCOC1` (stereo not drawn) [Compound 184, 4-((tetrahydrofuran-3-yl)methoxy)-N-(2,2,2-trifluoroethyl)-3-(3-(3-(trifluoromethyl)phenyl)ureido)benzenesulfonamide], the IC50 lay in the range of 0.1 to 1 µM. The result for `CC(C)Oc1ccc(S(=O)(=O)NCC(F)(F)F)cc1NC(=O)Nc1cccc(C(F)(F)F)c1` [Compound 185, 4-isopropoxy-N-(2,2,2-trifluoroethyl)-3-(3-(3-(trifluoromethyl)phenyl)ureido)benzenesulfonamide] reads 0.1 to 1 µM; that for `O=C(Nc1cccc(C(F)(F)F)c1)Nc1cc(S(=O)(=O)NCC(F)(F)F)ccc1Oc1cccnc1` [Compound 186, 4-(pyridin-3-yloxy)-N-(2,2,2-trifluoroethyl)-3-(3-(3-(trifluoromethyl)phenyl)ureido)benzenesulfonamide], 0.1 to 1 µM. For `O=C(Nc1ncc(Cl)s1)Nc1cc(S(=O)(=O)NCC(F)(F)F)ccc1OCC1CC1` [Compound 187, 3-(3-(5-chlorothiazol-2-yl)ureido)-4-(cyclopropylmethoxy)-N-(2,2,2-trifluoroethyl)benzenesulfonamide], the IC50 was 0.1 to 1 µM. In the case of `O=C(Nc1ccc(F)cc1F)Nc1cc(S(=O)(=O)NCC(F)(F)F)ccc1OCC1CC1` [Compound 188, 4-(cyclopropylmethoxy)-3-(3-(2,4-difluorophenyl)ureido)-N-(2,2,2-trifluoroethyl)benzenesulfonamide], the IC50 is 0.1 to 1 µM. With `O=C(Nc1cc(C(F)(F)F)ccn1)Nc1cc(S(=O)(=O)NCC(F)(F)F)ccc1OCC1CC1` [Compound 189, 4-(cyclopropylmethoxy)-N-(2,2,2-trifluoroethyl)-3-(3-(4-(trifluoromethyl)pyridin-2-yl)ureido)benzene sulfonamide], the IC50 is 0.1 to 1 µM. As to `CCOc1ccc(S(=O)(=O)NCC(F)(F)F)cc1NC(=O)Nc1cc(C(F)(F)F)ccn1` [Compound 190, 4-ethoxy-N-(2,2,2-trifluoroethyl)-3-(3-(4-(trifluoromethyl)pyridin-2-yl)ureido)benzenesulfonamide], the IC50 was 0.1 to 1 µM. Turning to `CCOc1ccc(S(=O)(=O)NCC(F)(F)F)cc1NC(=O)Nc1ncc(Cl)s1` [Compound 191, 3-(3-(5-chlorothiazol-2-yl)ureido)-4-ethoxy-N-(2,2,2-trifluoroethyl)benzenesulfonamide], the IC50 lay in the range of 0.1 to 1 µM. The result for `O=C(Nc1cccc(C(F)(F)F)c1)Nc1cc(S(=O)(=O)Nc2ccccc2)ccc1Oc1ccccc1` [Compound 192, 4-phenoxy-N-phenyl-3-(3-(3-(trifluoromethyl)phenyl)ureido)benzenesulfonamide] reads 0.1 to 1 µM. For `O=C(Nc1cccc(C(F)(F)F)c1)Nc1cc(S(=O)(=O)NC2CC2)ccc1OCc1ccccc1` [Compound 193] the value was 1 to 10 µM; for `CC[S+]([O-])c1ccc(S(=O)(=O)NCC(F)(F)F)cc1NC(=O)Nc1cccc(C(F)(F)F)c1` (stereo not drawn) [Compound 195, 4-(ethylsulfinyl)-N-(2,2,2-trifluoroethyl)-3-(3-(3-(trifluoromethyl)phenyl)ureido)benzenesulfonamide], 0.1 to 1 µM; for `CCS(=O)(=O)c1ccc(S(=O)(=O)NCC(F)(F)F)cc1NC(=O)Nc1cccc(C(F)(F)F)c1` [Compound 196, 4-(ethylsulfonyl)-N-(2,2,2-trifluoroethyl)-3-(3-(3-(trifluoromethyl)phenyl)ureido)benzenesulfonamide], under 0.1 µM. Regarding `O=C(Nc1cccc(C(F)(F)F)c1)Nc1cc(S(=O)(=O)NCC(F)(F)F)cnc1OCC1CC1` [Compound 197, 6-(cyclopropylmethoxy)-N-(2,2,2-trifluoroethyl)-5-(3-(3-(trifluoromethyl)phenyl)ureido)pyridine-3-sulfonamide], the IC50 is under 0.1 µM. Turning to `O=C(Nc1cccc(C(F)(F)F)c1)Nc1cc(S(=O)(=O)NC2COC2)cnc1OCC1CC1` [Compound 198, 6-(cyclopropylmethoxy)-N-(oxetan-3-yl)-5-(3-(3-(trifluoromethyl)phenyl)ureido)pyridine-3-sulfonamide], the IC50 lay within 0.1 to 1 µM. As for `CCOc1ncc(S(=O)(=O)NC2COC2)cc1NC(=O)Nc1cccc(C(F)(F)F)c1` [Compound 199, 6-ethoxy-N-(oxetan-3-yl)-5-(3-(3-(trifluoromethyl)phenyl)ureido)pyridine-3-sulfonamide], the IC50 lay in the range of 0.1 to 1 µM. Turning to `N#CC1(NS(=O)(=O)c2cnc(OCC3CC3)c(NC(=O)Nc3cccc(C(F)(F)F)c3)c2)CC1` [Compound 200, N-(1-cyanocyclopropyl)-6-(cyclopropylmethoxy)-5-(3-(3-(trifluoromethyl)phenyl)ureido)pyridine-3-sulfonamide], the IC50 is 1 to 10 µM.
